The values below come from patent publication US20100048597A1 (Novartis AG, priority 2006, published 2010).

Assay [1] concerns the target T1, CDK1/cyclinB (Homo sapiens, UniProt P06493).
T1 construct: purchased Millipore
Put plainly: CDK1/cyclinB kinase assay, IMAP fluorescence polarization. It is filed as biochemical. As to conditions: read-out: CDK1 IC50. The protocol:
(§1) Kinase assays were performed on recombinant purified enzymes using the non-radioactive IMAP fluorescence polarization assay format.
(§2) Compound stocks were prepared and diluted in DMSO and were added to kinase reactions at a 1/100 dilution for a final concentration of 1% DMSO. The components were added together to final concentrations listed in the tables below and incubated for two hours at room temperature.
(§3) The reactions were stopped by addition of stop solution.
The samples were allowed to incubate for one more hour at room temperature and then the fluorescence polarization was measured.

In assay [2] the test system is RNA Polymerase II CTD Serine2 Phosphorylation. Put plainly: H5 (Ser2) Ab High Content Screen: RNA Polymerase II CTD Serine2 Phosphorylation Assay in Hep3B cells. It counts as cell-based. As to conditions: Homo sapiens, 2 hours with compound, H5 antibody staining. On the procedure: H5 (also referred as Ser2) Ab High Content Screen: RNA Polymerase II CTD Serine2 Phosphorylation Assay
1. Cells are plated into 384 well plates: 30 μl of Hep3B cells (4,000 cells/30 μl) in DMEM with 3% FBS are plated into wells of a tissue culture treated clear bottomed 384 well plate. Cells are allowed to adhere during an overnight incubation.
2. Cells are treated with compounds for two hours: 10 μl of DMEM with 3% FBS is added to each well with a final concentration of DMSO equal to 1%. Cells are incubated with compounds for 2 hours.
3. Cells are fixed and permeabilized. Cells are washed with 30 mM HEPES pH=7.3 then fixed in 4% paraformaldehyde in 30 mM HEPES pH=7.3 for one hour at room temperature. The fix is removed by washing the cells with Tris buffered saline (TBS) and the cells are permeabilized by incubation in TBS with 0.5% triton X-100 for 30 minutes at room temperature. Triton is removed by washing the cells with TBS.
4. […] Incubate primary H5 Ab (1/250 ) overnight at 4 degrees in TBS with 1% BSA and 0.1% Tween-20. The next day wash cells with TBS. […] Wash cells with PBS.
5. Measure staining using the In-cell Analyzer system from GE Healthcare.

Assay [3] addresses T2, CDK9/cyclinT1 (Homo sapiens, UniProt P50750).
T2 construct: purchased Millipore
Put plainly: CDK9/cyclinT1 kinase assay, IMAP fluorescence polarization. It is filed as biochemical. On the procedure:
as §1, §2, §3
CDK9/CDK1/CDK7: final stop concentration is 1× Developer buffer (85% A/15% B), IMAP beads 1/400
(§4) The samples were allowed to incubate for one more hour at room temperature and then the fluorescence polarization was measured. The plate normalized millipolarization (mP) values were plotted against the log of compound concentration for each compound and IC50 values were calculated using the spotfire IC50 calculator and confirmed by visual analysis.

The target in assay [4] is T3, CDK2/cyclinA (Homo sapiens, UniProt P24941).
T3 construct: purchased Millipore
Put plainly: CDK2/cyclinA kinase assay, IMAP fluorescence polarization. It counts as biochemical. The protocol:
as §1, §2, §3
CDK2: final stop concentration is 1× Developer buffer (100% A), IMAP beads 1/400
as §4

In assay [5] the target is CDK4 (Homo sapiens, UniProt P11802). Put plainly: CDK4 kinase assay (Table F). It counts as biochemical.
Assay [6] has as its target CDK5 (Homo sapiens, UniProt Q00535). Briefly: CDK5 kinase assay (Table F). It counts as biochemical.

T2 sequence (P50750 whole entry): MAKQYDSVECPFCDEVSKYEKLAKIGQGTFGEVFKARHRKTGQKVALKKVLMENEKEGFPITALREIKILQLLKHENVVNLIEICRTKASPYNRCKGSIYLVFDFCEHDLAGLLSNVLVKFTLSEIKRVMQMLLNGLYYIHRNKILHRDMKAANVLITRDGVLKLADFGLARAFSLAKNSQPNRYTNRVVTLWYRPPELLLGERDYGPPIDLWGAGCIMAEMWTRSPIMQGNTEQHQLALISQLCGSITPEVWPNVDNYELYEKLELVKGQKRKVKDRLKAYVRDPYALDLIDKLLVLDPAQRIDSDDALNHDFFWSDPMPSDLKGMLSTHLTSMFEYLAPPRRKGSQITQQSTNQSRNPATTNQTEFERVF
T2 sequence (O60563 whole entry partner): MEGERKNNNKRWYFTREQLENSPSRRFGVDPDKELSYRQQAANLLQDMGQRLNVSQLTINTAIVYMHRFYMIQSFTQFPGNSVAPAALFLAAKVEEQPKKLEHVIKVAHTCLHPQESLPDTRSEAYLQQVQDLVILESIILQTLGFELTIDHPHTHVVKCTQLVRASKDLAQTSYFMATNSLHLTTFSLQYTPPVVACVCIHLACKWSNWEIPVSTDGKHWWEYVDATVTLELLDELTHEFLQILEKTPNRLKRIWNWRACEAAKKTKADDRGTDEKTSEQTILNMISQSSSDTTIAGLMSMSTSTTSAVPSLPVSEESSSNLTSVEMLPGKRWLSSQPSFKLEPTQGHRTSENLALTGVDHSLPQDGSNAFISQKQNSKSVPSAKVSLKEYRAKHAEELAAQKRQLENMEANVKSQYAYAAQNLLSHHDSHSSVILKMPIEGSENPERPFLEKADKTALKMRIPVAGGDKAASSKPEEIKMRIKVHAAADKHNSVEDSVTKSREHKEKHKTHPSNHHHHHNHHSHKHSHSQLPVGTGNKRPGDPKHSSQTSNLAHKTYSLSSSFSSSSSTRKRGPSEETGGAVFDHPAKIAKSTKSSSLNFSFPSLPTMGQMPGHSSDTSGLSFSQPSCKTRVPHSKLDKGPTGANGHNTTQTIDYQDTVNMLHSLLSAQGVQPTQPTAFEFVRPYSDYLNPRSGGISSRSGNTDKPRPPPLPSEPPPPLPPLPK
CDK5, sequence (Q00535 whole entry, species assumed): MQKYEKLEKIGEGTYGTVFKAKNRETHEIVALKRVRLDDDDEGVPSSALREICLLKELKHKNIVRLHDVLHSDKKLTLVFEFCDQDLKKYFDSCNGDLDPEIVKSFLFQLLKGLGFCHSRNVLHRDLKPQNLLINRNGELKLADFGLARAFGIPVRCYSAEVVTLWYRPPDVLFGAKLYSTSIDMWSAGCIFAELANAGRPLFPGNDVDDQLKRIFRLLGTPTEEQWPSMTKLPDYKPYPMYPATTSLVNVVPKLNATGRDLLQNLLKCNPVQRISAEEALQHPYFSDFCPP
CDK5, sequence (Q15078 whole entry partner, species assumed): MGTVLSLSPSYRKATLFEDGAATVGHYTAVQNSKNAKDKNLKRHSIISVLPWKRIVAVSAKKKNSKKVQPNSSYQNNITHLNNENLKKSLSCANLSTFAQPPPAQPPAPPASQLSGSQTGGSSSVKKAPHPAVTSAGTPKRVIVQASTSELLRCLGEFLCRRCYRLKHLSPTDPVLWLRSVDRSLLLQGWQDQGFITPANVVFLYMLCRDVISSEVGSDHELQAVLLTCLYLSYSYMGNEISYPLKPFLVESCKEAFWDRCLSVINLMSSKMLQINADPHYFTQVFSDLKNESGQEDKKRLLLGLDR
CDK4, sequence (P11802 whole entry, species assumed): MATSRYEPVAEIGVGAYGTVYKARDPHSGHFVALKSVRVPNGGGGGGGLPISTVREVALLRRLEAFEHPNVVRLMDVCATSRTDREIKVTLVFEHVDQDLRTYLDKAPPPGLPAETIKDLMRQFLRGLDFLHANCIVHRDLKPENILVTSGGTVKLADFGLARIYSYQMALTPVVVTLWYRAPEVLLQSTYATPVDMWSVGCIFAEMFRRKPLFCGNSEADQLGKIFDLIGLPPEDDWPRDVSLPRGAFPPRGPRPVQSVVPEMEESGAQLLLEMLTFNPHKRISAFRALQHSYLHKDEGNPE
CDK4, sequence (P24385 whole entry partner, species assumed): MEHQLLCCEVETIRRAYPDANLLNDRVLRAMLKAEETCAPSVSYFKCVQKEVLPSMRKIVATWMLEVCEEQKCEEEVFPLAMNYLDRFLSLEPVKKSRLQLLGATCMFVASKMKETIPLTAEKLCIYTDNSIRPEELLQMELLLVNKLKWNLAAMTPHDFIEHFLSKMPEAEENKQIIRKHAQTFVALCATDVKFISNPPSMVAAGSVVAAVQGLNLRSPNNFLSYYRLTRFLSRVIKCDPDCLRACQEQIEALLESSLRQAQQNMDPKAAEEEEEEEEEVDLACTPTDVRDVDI
T1 sequence (P06493 whole entry): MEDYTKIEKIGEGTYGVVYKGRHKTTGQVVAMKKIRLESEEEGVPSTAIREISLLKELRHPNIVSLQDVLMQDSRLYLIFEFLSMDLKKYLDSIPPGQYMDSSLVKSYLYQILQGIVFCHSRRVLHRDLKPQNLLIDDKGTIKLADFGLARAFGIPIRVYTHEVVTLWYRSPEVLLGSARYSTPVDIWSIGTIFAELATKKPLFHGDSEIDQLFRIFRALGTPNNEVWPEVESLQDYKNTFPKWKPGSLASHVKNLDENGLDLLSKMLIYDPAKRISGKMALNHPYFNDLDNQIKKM
T1 sequence (P14635 whole entry partner): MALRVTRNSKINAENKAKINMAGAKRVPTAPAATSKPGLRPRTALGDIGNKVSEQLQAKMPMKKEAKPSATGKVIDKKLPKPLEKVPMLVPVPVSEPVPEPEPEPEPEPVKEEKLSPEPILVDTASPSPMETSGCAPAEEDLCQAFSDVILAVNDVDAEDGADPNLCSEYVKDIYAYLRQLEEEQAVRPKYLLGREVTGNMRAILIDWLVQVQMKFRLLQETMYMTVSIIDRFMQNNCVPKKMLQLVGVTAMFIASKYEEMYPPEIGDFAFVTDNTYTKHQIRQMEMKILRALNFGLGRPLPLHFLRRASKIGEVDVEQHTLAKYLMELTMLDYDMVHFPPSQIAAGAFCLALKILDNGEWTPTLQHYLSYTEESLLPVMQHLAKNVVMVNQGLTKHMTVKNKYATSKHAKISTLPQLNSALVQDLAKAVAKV

Turning to `Cc1c(-c2ccnc(Nc3cccc(Cl)c3)n2)ccnc1Cl` [Compound 2, [4-(2-Chloro-3-methyl-pyridin-4-yl)-pyrimidin-2-yl]-(3-chloro-phenyl)-amine], the concentration for half-maximal inhibition (IC50) is > 50 µM in assay [1], > 50 µM in assay [2], < 5 µM in assay [3] and > 50 µM in assay [4].
Consider `Cc1cnccc1-c1ccnc(Nc2cccc(Cl)c2)n1` [Compound 44, (3-Chloro-phenyl)-[4-(3-methyl-pyridin-4-yl)-pyrimidin-2-yl]-amine], for which the IC50 in assay [1] is < 5 µM; in assay [5], 15 to 50 µM; in assay [6] it was < 5 µM; in assay [3], < 5 µM; in assay [4], < 5 µM.
Turning to `COc1cnccc1-c1nc(Nc2cccc(S(N)(=O)=O)c2)ncc1C` [Compound 47, 3-[4-(3-Methoxy-pyridin-4-yl)-5-methyl-pyrimidin-2-ylamino]-benzenesulfonamide], the IC50 in assay [1] was 5 to 15 µM; in assay [5], < 5 µM; in assay [6], < 5 µM; in assay [3], < 5 µM; in assay [4], < 5 µM.
Take `CN(C)CCCNc1ncccc1-c1ccnc(Nc2cccc(Cl)c2)n1` [Compound 63, N-{3-[2-(3-Chloro-phenylamino)-pyrimidin-4-yl]-pyridin-2-yl}-N′,N′-dimethyl-propane-1,3-diamine]: the IC50 in assay [1] was < 5 µM; in assay [5], 5 to 15 µM; in assay [6], < 5 µM; in assay [3], < 5 µM; in assay [4] it was < 5 µM.
With `CC(C)NCCCNc1ncccc1-c1ccnc(Nc2cccc(Cl)c2)n1` [Compound 64, N-{3-[2-(3-Chloro-phenylamino)-pyrimidin-4-yl]-pyridin-2-yl}-N′-isopropyl-propane-1,3-diamine], the IC50 was < 5 µM in assay [1]; 5 to 15 µM in assay [5]; < 5 µM in assay [6]; < 5 µM in assay [3]; < 5 µM in assay [4].
Take `CC(=O)NCCCNc1ncccc1-c1ccnc(Nc2cccc(S(C)(=O)=O)c2)n1` [Compound 67, N-(3-{3-[2-(3-Methanesulfonyl-phenylamino)-pyrimidin-4-yl]-pyridin-2-ylamino}-propyl)-acetamide]: the IC50 was > 50 µM in assay [1]; 15 to 50 µM in assay [5]; 5 to 15 µM in assay [6]; < 5 µM in assay [3]; 5 to 15 µM in assay [4].
For `CC(=O)NCCCNc1ncccc1-c1ccnc(Nc2cccc(S(N)(=O)=O)c2)n1` [Compound 68, N-(3-{3-[2-(3-Sulfamoyl-phenylamino)-pyrimidin-4-yl]-pyridin-2-ylamino}-propyl)-acetamide], the IC50 in assay [1] was < 5 µM; in assay [5], 15 to 50 µM; in assay [6], < 5 µM; in assay [3] it was < 5 µM; in assay [4] it was < 5 µM.
As for `CC(=O)NCCCNc1ncccc1-c1ccnc(Nc2cccc(C#N)c2)n1` [Compound 69, N-(3-{3-[2-(3-Cyano-phenylamino)-pyrimidin-4-yl]-pyridin-2-ylamino}-propyl)-acetamide], the IC50 is < 5 µM in assay [1]; 15 to 50 µM in assay [5]; < 5 µM in assay [6]; < 5 µM in assay [3]; < 5 µM in assay [4].
As for `Clc1cccc(Nc2nccc(-c3cccnc3NCCc3c[nH]cn3)n2)c1` [Compound 79], the IC50 in assay [1] was < 5 µM; in assay [5] it was 15 to 50 µM; in assay [6] it was < 5 µM; in assay [3], < 5 µM; in assay [4], < 5 µM.
As for `NS(=O)(=O)c1cccc(Nc2nccc(-c3cccnc3NCCCn3ccnc3)n2)c1` [Compound 83, 3-{4-[2-(3-Imidazol-1-yl-propylamino)-pyridin-3-yl]-pyrimidin-2-ylamino}-benzenesulfonamide], the IC50 in assay [1] was < 5 µM; in assay [5], 15 to 50 µM; in assay [6], < 5 µM; in assay [3], < 5 µM; in assay [4], < 5 µM.
Turning to `CCN(CC)S(=O)(=O)c1cccc(Nc2nccc(-c3cccnc3OC)n2)c1` [Compound 105, N,N-Diethyl-3-[4-(2-methoxy-pyridin-3-yl)-pyrimidin-2-ylamino]-benzenesulfonamide], the IC50 in assay [1] is > 50 µM; in assay [5] it was 15 to 50 µM; in assay [6] it was 5 to 15 µM; in assay [3], > 50 µM; in assay [4], > 50 µM.
On to `COc1ncccc1-c1ccnc(Nc2cccc(S(=O)(=O)N3CCCCC3)c2)n1` [Compound 107, [4-(2-Methoxy-pyridin-3-yl)-pyrimidin-2-yl]-[3-(piperidine-1-sulfonyl)-phenyl]-amine], for which the half-maximal inhibitory concentration (IC50) in assay [1] was 5 to 15 µM; in assay [3] it was < 5 µM; in assay [4] it was < 5 µM.
`CCOC(=O)c1cccc(Nc2nccc(-c3cccnc3OC)n2)c1` [Compound 108, 3-[4-(2-Methoxy-pyridin-3-yl)-pyrimidin-2-ylamino]-benzoic acid ethyl ester]: the concentration for half-maximal inhibition (IC50) in assay [1], in assay [3] and in assay [4] was < 5 µM in each case.
As for `COc1ncccc1-c1ccnc(Nc2cccc(C(=O)OC(C)(C)C)c2)n1` [Compound 109, 3-[4-(2-Methoxy-pyridin-3-yl)-pyrimidin-2-ylamino]-benzoic acid tert-butyl ester], the IC50 in assay [1] is > 50 µM; in assay [3], < 5 µM; in assay [4], < 5 µM.
For the molecule `COc1ncccc1-c1ccnc(Nc2cccc(-c3nncn3C)c2)n1` [Compound 111, [4-(2-Methoxy-pyridin-3-yl)-pyrimidin-2-yl]-[3-(4-methyl-4H-[1,2,4]triazo1-3-yl)-phenyl]-amine], the values for the IC50 in assay [1], in assay [3] and in assay [4] were 5 to 15 µM, < 5 µM and < 5 µM, respectively.
For the molecule `COc1ncccc1-c1ccnc(Nc2cccc(C3CCNCC3)c2)n1` [Compound 113, [4-(2-Methoxy-pyridin-3-yl)-pyrimidin-2-yl]-(3-piperidin-4-yl-phenyl)-amine], the half-inhibitory concentration (IC50) in assay [1], in assay [3] and in assay [4] was < 5 µM each time.
With `COc1ncccc1-c1ccnc(Nc2cccc(C3CCN(C(=O)OC(C)(C)C)CC3)c2)n1` [Compound 114, 4-{3-[4-(2-Methoxy-pyridin-3-yl)-pyrimidin-2-ylamino]-phenyl}-piperidine-1-carboxylic acid tert-butyl ester], the IC50 in assay [1], in assay [3] and in assay [4] was > 50 µM throughout.
For `COc1ncccc1-c1ccnc(Nc2cccc(-c3ccccc3)c2)n1` [Compound 115, Biphenyl-3-yl-[4-(2-methoxy-pyridin-3-yl)-pyrimidin-2-yl]-amine], the IC50 is > 50 µM in assay [1], < 5 µM in assay [3] and > 50 µM in assay [4].
`COc1ncccc1-c1ccnc(Nc2ccc([N+](=O)[O-])cc2)n1` [Compound 116, [4-(2-Methoxy-pyridin-3-yl)-pyrimidin-2-yl]-(4-nitro-phenyl)-amine]: the IC50 in assay [1], in assay [3] and in assay [4] was > 50 µM throughout.
Take `COc1ncccc1-c1ccnc(Nc2ccc(N3CCN(C)CC3)cc2)n1` [Compound 117, [4-(2-Methoxy-pyridin-3-yl)-pyrimidin-2-yl]-[4-(4-methyl-piperazin-1-yl)-phenyl]-amine]: the half-maximal inhibitory concentration (IC50) in assay [1] is 5 to 15 µM; in assay [5] it was < 5 µM; in assay [6], < 5 µM; in assay [3], < 5 µM; in assay [4] it was < 5 µM.
Turning to `NCCCOc1ncccc1-c1ccnc(Nc2cccc(Cl)c2)n1` [Compound 120, {4-[2-(3-Amino-propoxy)-pyridin-3-yl]-pyrimidin-2-yl}-(3-chloro-phenyl)-amine], the 50% inhibitory concentration (IC50) is < 5 µM in assay [1]; 15 to 50 µM in assay [5]; < 5 µM in assay [6]; < 5 µM in assay [3]; 15 to 50 µM in assay [4].
Take `CC(=O)NCCCOc1ncccc1-c1ccnc(Nc2cccc(Cl)c2)n1` [Compound 121, N-(3-{3-[2-(3-Chloro-phenylamino)-pyrimidin-4-yl]-pyridin-2-yloxy}-propyl)-acetamide]: the IC50 in assay [1] was 5 to 15 µM; in assay [5], 15 to 50 µM; in assay [6], 15 to 50 µM; in assay [3] it was < 5 µM; in assay [4], 15 to 50 µM.
